assay: Example 5: pilot device, degradation of four pesticides (FIG. 6); assay type: physicochemical; settings: initial boscalid 250, thiacloprid 100, fludioxonil 100, pyraclostrobin 125 μg/l; initial hydrogen peroxide 2 μg/l; 6 m^3/h, five lamps on
Excerpt: A semi-industrial pilot device in accordance with one aspect of the invention comprises a tank for recirculating water to be treated of a volume of 1000 l, a circulation pump ensuring a circulation flow of the water to be treated in a sanitising device with a flow rate between 4 m^3 to 8 m^3/h. The sanitising device comprises a photolysis chamber comprising an inlet for water from the recirculation tank and an outlet for sanitised water directed to the recirculation tank. The photolysis chamber is formed of a rigid tubular envelope, of which the external wall is opaque to light and forming an inner space suitable for receiving five fluorescent tubes with a longitudinal axis extending in parallel with the longitudinal axis of the rigid tubular envelope. The inner volume of the decontamination reactor is in the order of […].
The five fluorescent tubes are tubes of 200 W emitting light at a wavelength of 254 nm and arranged longitudinally in the tubular envelope at the five points of a regular pentagon and in contact with the water to be treated flowing in the photolysis chamber. In this configuration of the sanitising device, the water to be sanitised flowing in contact with the five fluorescent tubes is subjected to substantially homogeneous illumination in the order of 500 mJ/cm^2 for a circulation flow rate of water to be sanitised in the order of 6 m^3/h. The semi-industrial pilot device also comprises a tank for storing an aqueous solution of hydrogen peroxide (H2O2) provided with a pump for distributing said solution in the circulation flow of water to be sanitised issuing into the circuit of water to be sanitised upstream of and in proximity to the photolysis chamber. The concentration of the hydrogen peroxide in the aqueous solution of hydrogen peroxide is between 2 m g/l and 13 mg/l. The set-point flow rate of the pump for distributing solution of H2O2 is kept at 4 l/h.
A study was carried out in a semi-industrial pilot device as described above on the degradation of boscalid, thiacloprid, fludioxonil and pyraclostrobin. […]

Row | Compound | degraded within 1 hour
1 | N#Cc1c[nH]cc1-c1cccc2c1OC(F)(F)O2 [fludioxonil] | 90%
2 | COC(=O)N(OC)c1ccccc1COc1ccn(-c2ccc(Cl)cc2)n1 [pyraclostrobin] | 85%
3 | N#C/N=C1\SCCN1Cc1ccc(Cl)nc1 [thiacloprid] | more than 95%

From patent US10919785B2, “Hydraulic conveyor of floating objects provided with a device for sanitising conveying composition, plant provided with such a conveyor and sanitising method” (MAF AGROBOTIC, priority 2016, dated 2021)
